Laboratory results from patent US20190110476A1, “NOVEL ISOTHIAZOLAMIDES, PROCESSES FOR THEIR PREPARATION AND THEIR USE AS FUNGICIDES” (priority 2014, published 2019).

test: not given; conditions: not given

| Structure (SMILES) | melting point |
| --- | --- |
| Nc1nsc(C(=O)O)c1Br [E-VIII-015, 3-amino-4-bromo-1,2-thiazole-5-carboxylic acid] | 164.5 °C |

test: Measurement of LogP values by HPLC on reversed phase columns (EEC directive 79/831 Annex V.A8); type: physicochemical; conditions: not given
In short: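 LogP measured by reversed-phase HPLC following EEC directive 79/831 Annex V.A8. Lambda-max taken from UV spectra at 200–400 nm at chromatographic peak maxima; diastereoisomer values listed separately.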

| Structure (SMILES) | LogP [a] | LogP [b] |
| --- | --- | --- |
| CCCS(CC)=Nc1nsc(C(=O)NCc2ccc(F)cc2F)c1F (stereo not drawn) [II-094] | 1.77^[a] |  |
| O=C(NCCc1ccccc1)c1snc(N=C(c2ccccc2)c2ccccc2)c1Cl [II-095] | 4.69^[a] |  |
| COc1ccc(CNc2nsc(C(=O)N3CCCc4ccccc43)c2Cl)cc1 [II-097] | 3.84^[a] |  |
| COc1ccc(CNc2nsc(C(=O)N3CCc4c(Cl)cccc4C3)c2Cl)cc1 [II-098] | 4.20^[a] |  |
| COc1ccc(CNc2nsc(C(=O)N3CCCc4cc(C)ccc43)c2Cl)cc1 [II-099] | 4.24 | 4.15 |
| COc1ccc(CNc2nsc(C(=O)N3c4ccccc4CCC3C)c2Cl)cc1 (stereo not drawn) [II-100] | 4.14 | 4.09 |
| CC1CCc2ccccc2N1C(=O)c1snc(N)c1Cl (stereo not drawn) [II-101] | 2.48 | 2.39 |
| COc1ccc(CNc2nsc(C(=O)N3CCCC3)c2Cl)cc1 [II-102] | 2.72 | 2.66 |
| CCCS(CC)=Nc1nsc(C(=O)NCc2cc(F)c(F)cc2F)c1F (stereo not drawn) [II-103] | 2.10^[a] |  |
| CCCS(CC)=Nc1nsc(C(=O)NCc2ccc(F)c(F)c2F)c1F (stereo not drawn) [II-104] | 1.96^[a] |  |
| CCCS(CC)=Nc1nsc(C(=O)NCc2c(F)cc(F)cc2F)c1F (stereo not drawn) [II-105] | 1.92^[a] |  |
| COc1ccc(CNc2nsc(C(N)=O)c2Cl)cc1 [II-106] | 1.94^[a] |  |
| O=C(Nc1ccccc1)c1snc(N=C(c2ccccc2)c2ccccc2)c1Cl [II-107] | 4.62^[a] |  |
| COc1ccc(CNc2nsc(C(=O)N3CCCCC3)c2Cl)cc1 [II-108] | 3.22 | 3.16 |
| O=C(Nc1nscc1Cl)c1ccc(F)cc1 [Z-A-002] | 1.74^[a] |  |
| CC(C)(C)C(=O)Nc1nscc1Cl [Z-A-004] | 1.55^[a] |  |
| COc1ccc(CNc2nscc2Cl)cc1 [Z-A-005] | 3.00^[a] |  |
| COc1ccc(CN(Cc2ccccc2)c2nscc2Cl)cc1 [Z-A-007] | 5.03^[a] |  |
| COc1ccc(CN(Cc2ccc(C)cc2)c2nscc2Cl)cc1 [Z-A-008] | 5.48^[a] |  |

same assay, conditions: HPLC LC-UV, acidic range, 0.1% formic acid in water and acetonitrile as eluent

| Structure (SMILES) | chromatographic logP |
| --- | --- |
| Nc1nsc(C(=O)O)c1Br [E-VIII-015, 3-amino-4-bromo-1,2-thiazole-5-carboxylic acid] | -0.07 |
| c1ccc(CN(Cc2ccccc2)c2ccsn2)cc1 [Z-A-001, N,N-dibenzyl-1,2-thiazol-3-amine] | 4.13 |
